We go through 8 molecules from ChEMBL document CHEMBL4840349, “Macrocyclic Diterpenoid Constituents of Euphorbia deflexa, an Endemic Spurge from Greece” (J Nat Prod, 2021).

The test system of one test is HepG2. Kind of test: Cytotoxicity against human HepG2 cells assessed as cell growth inhibition incubated for 68 hrs by MTT assay. It is filed as functional, cell-based. To be noted: HepG2, 68 h. For orientation: Formazan colour is commonly taken as a measure of viable cells.
A further test concerns PC-3. Kind of test: Cytotoxicity against human PC-3 cells assessed as cell growth inhibition incubated for 68 hrs by MTT assay. To be noted: PC-3, 68 h. It is filed as functional, cell-based.
Another test deals with SK-MEL-28. The experiment in a line: Cytotoxicity against human SK-MEL-28 cells assessed as cell growth inhibition incubated for 68 hrs by MTT assay. In kind it is functional, cell-based. The note with it: SK-MEL-28, 68 h.
In another test the test system is HeLa. The experiment in a line: Cytotoxicity against human HeLa cells assessed as cell growth inhibition incubated for 68 hrs by MTT assay. In kind it is functional, cell-based.
For a further test, the system named is Staphylococcus aureus. Kind of test: Antibacterial activity against Staphylococcus aureus DSM 20231 incubated for 20 hrs by MTT based double dilution method. In kind it is functional, organism-based.
The subject of another test is Streptococcus pyogenes. The experiment in a line: Antibacterial activity against Streptococcus pyogenes DSM 20565-0316-001 incubated for 20 hrs by MTT based double dilution method. In kind it is functional, organism-based.

Activity calls are given as the source filed them. The calls are words filed in the database; no cut-off is given here.

Regarding `C=C1C(=O)O[C@@H]2C3O[C@]3(C)CC/C=C(\C)CC[C@@H]12` (some centres not stated), the 50% inhibitory concentration (IC50) in the test on HepG2 is 5.6 µM; in the test with PC-3, over 10 µM; with SK-MEL-28, 4.9 µM; in the test with HeLa, 2.1 µM.

As for `CC(=O)OC[C@@]12Cc3c(ccc(C)c3O)[C@]1(C)[C@@H](OC(C)=O)[C@@]1(O)C[C@@](C)(OC(C)=O)[C@H](OC(=O)c3ccccc3)[C@@H]1[C@H]2OC(C)=O`, the IC50 in the test with SK-MEL-28 and in the test on HeLa was over 10 µM in each case.

Regarding `C=C1[C@H](O)[C@H]2[C@@H](OC(=O)c3ccccc3)[C@](C)(OC(C)=O)[C@@H](OC(=O)c3ccccc3)[C@]2(O)[C@@H](O)[C@@H](C)/C=C/C(C)(C)[C@H](O)[C@H](OC(C)=O)[C@H]1OC(C)=O`, the IC50 with HepG2 is over 10 µM; in the test with PC-3, over 10 µM; in the test with SK-MEL-28 it was over 10 µM; in the test on HeLa it was 9.9 µM. Moreover, the result with Staphylococcus aureus and in the test on Streptococcus pyogenes was inactive.

Regarding `C/C=C(/C)C(=O)O[C@H]1C(C)=C[C@]23C(=O)[C@@H](C=C(C)[C@@H](O)[C@]12O)[C@H]1[C@@H](C[C@H]3C)C1(C)C`, the 50% inhibitory concentration (IC50) in the test with HepG2, with PC-3, in the test with SK-MEL-28 and in the test with HeLa was over 10 µM throughout.

Consider `C/C=C(/C)C(=O)O[C@@H]1C2[C@@H](OC(=O)c3ccccc3)[C@@H](C)C[C@]2(O)C(=O)[C@@](C)(O)[C@H]2CC(C)(C)C(=O)[C@]2(O)[C@H]2O[C@@]12COC(C)=O` (some centres not stated), for which the IC50 in the test with HepG2, in the test on PC-3, in the test with SK-MEL-28 and in the test with HeLa was over 10 µM throughout. For the same molecule, the result in the test on Staphylococcus aureus and with Streptococcus pyogenes was inactive.

As to `C/C=C(/C)C(=O)OC[C@@]1(C)[C@H]2[C@@H]3C=C(C)[C@@H](O)[C@]4(O)[C@@H](OC(=O)/C(C)=C\C)C(C)=C[C@@]4(C3=O)[C@H](C)C[C@]21OC(C)=O`, the 50% inhibitory concentration (IC50) is over 10 µM in the test on SK-MEL-28 and 9.8 µM with HeLa. The outcome with Staphylococcus aureus and with Streptococcus pyogenes was inactive.

Take `CC(=O)OC[C@@]12Cc3c(ccc(C)c3O)[C@]1(C)[C@@H](OC(C)=O)[C@]1(O)[C@H]([C@@H](OC(=O)c3ccccc3)[C@@H](C)[C@H]1OC(C)=O)[C@H]2OC(C)=O`: the IC50 in the test with SK-MEL-28 was over 10 µM; in the test on HeLa, over 5.8 µM.

In the case of `CC(=O)OCC(=O)O[C@@H]1[C@H]2[C@@H](OC(=O)c3ccccc3)[C@@H](C)C[C@]2(O)[C@H](O)[C@]2(O)[C@H](OC(C)=O)[C@@]1(OC(C)=O)C[C@H]1C(=O)C(C)(C)C[C@@H]12`, the IC50 in the test with HepG2, with PC-3, in the test on SK-MEL-28 and with HeLa was over 10 µM throughout.

As usually defined, the IC50 is the concentration that inhibits the measured activity by half.
